Reference: ChEMBL document CHEMBL1201862, “PubChem BioAssay data set” (2004)
One block for each compound: values may come before it. Calls of active or inactive are those of the source.

Key:
[1] = Luminescence Cell-Based Dose Response HTS to Identify Activators of Luciferase Translation or Activity in H4 […] Cells. [Related pubchem assays: 1829 (Project Summary), 1814 (Primary HTS)]; assay type: functional
[2] = target: T1, Mannose-6-phosphate isomerase (Homo sapiens, UniProt P34949); assay: human PMI inhibitors, high substrate, primary screen, biochemical, fluorescence intensity, high mannose 6-phosphate (AID 1220)
T1 sequence (P34949 whole entry): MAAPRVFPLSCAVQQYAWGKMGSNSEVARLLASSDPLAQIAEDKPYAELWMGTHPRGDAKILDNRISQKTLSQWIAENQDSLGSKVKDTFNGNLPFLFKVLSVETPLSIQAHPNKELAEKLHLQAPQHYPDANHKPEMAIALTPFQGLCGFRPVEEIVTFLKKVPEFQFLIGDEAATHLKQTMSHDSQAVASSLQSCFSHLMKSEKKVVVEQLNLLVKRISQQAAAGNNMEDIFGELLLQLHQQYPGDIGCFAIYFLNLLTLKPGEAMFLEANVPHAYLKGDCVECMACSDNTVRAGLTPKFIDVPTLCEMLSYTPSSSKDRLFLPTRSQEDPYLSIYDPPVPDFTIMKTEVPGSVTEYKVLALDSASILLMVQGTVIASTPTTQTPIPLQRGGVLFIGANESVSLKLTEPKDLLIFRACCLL

[3] = target: T2, Sentrin-specific protease 7 (Homo sapiens, UniProt Q9BQF6); assay: SENP7 protease inhibitors, SAR follow-up, biochemical, luminescence (AID 504497); assay type: functional
T2 sequence (Q9BQF6 whole entry): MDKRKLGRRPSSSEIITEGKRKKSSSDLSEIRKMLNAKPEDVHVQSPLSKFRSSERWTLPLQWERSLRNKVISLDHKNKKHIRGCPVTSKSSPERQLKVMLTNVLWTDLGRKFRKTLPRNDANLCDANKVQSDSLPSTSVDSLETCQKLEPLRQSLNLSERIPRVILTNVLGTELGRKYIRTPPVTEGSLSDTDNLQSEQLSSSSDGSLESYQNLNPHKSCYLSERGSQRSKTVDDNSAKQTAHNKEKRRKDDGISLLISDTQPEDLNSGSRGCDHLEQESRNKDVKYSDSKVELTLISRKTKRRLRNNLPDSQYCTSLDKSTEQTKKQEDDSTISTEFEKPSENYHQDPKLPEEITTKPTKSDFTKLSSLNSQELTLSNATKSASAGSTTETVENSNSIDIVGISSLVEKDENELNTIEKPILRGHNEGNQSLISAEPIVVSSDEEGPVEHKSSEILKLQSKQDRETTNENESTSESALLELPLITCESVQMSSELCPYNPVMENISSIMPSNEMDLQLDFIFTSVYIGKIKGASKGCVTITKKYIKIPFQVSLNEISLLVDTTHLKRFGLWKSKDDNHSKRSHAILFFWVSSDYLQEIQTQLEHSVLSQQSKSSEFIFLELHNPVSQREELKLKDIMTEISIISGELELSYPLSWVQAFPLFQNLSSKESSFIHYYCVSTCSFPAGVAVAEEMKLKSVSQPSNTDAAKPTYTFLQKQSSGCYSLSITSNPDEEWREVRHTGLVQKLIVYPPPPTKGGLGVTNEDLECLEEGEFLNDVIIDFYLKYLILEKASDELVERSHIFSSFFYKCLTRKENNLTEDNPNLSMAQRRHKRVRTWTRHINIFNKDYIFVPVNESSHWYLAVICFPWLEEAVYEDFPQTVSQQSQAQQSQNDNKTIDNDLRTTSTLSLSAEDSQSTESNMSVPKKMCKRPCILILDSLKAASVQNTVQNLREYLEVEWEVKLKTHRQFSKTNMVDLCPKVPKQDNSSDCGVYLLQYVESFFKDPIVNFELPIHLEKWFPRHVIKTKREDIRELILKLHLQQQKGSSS

[4] = A549 cell cytotoxicity, dose response, cytotoxicity control, plate reader, cherry-pick, antagonist series (AID 743412); assay type: functional, cell-based
[5] = target: T3, Oxysterols receptor LXR-beta (Homo sapiens, UniProt P55055); assay type: functional, cell-based;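 also: Cell-based luminescence dose-response assay of agonist activity at LXR, run as a confirmatory counterscreen to a daf-12 agonist screen; HEK293 cells with Gal4-LXR fusion and GAL4-driven luciferase reporter; agonist potency from rising luciferase signal of a Gal4-LXR reporter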
T3 sequence (P55055 whole entry): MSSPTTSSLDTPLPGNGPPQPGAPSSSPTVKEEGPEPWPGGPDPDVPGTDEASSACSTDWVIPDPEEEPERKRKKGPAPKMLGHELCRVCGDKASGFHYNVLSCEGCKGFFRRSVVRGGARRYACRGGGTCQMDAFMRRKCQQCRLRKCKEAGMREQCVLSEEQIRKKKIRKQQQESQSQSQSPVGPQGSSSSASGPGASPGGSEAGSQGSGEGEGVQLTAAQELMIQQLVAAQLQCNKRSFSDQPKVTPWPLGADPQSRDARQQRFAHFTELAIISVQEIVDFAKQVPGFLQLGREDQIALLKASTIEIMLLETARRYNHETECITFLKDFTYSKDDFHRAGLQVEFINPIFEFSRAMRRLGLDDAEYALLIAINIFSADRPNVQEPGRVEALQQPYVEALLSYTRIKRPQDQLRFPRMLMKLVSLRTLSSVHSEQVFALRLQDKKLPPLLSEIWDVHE

[6] = target: Serine/threonine-protein kinase TBK1 (Homo sapiens, UniProt Q9UHD2); assay: Navigating the Kinome. Panel member name: TBK1; assay type: functional
Chain of Serine/threonine-protein kinase TBK1 (Q9UHD2 whole entry): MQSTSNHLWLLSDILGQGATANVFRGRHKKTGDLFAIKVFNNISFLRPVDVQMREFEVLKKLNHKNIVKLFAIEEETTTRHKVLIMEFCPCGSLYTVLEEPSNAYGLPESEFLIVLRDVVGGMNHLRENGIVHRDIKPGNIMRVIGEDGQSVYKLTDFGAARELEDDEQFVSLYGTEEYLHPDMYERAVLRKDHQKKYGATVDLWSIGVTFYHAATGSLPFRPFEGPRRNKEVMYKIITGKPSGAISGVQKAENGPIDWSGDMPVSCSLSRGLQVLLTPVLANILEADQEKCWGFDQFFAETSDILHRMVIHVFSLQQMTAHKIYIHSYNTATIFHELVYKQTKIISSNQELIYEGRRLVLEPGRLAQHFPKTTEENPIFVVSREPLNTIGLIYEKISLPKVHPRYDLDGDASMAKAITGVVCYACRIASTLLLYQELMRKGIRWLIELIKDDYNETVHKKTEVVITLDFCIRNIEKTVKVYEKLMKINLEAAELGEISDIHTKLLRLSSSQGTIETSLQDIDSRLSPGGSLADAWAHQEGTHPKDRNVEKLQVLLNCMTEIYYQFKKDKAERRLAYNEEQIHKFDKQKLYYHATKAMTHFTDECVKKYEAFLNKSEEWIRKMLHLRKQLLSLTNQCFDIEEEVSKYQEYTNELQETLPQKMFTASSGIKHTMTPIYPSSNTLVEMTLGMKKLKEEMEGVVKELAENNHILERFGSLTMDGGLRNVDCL

[7] = target: Serine/threonine-protein kinase D2 (Homo sapiens, UniProt Q9BZL6); assay type: functional;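 also: measured against PRKD2 as one member of a kinome-wide kinase profiling panel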
[8] = target: Tyrosine-protein kinase SYK (Homo sapiens, UniProt P43405); assay type: functional
[9] = target: Cyclin-dependent kinase 2 (Homo sapiens, UniProt P24941); assay type: functional;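 also: CDK2 measured as one member of a broad kinome profiling panel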
[10] = target: MAP kinase-activated protein kinase 5 (Homo sapiens, UniProt Q8IW41); assay type: functional;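 also: measured as one member of a kinome panel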
Chain of MAP kinase-activated protein kinase 5 (Q8IW41 whole entry): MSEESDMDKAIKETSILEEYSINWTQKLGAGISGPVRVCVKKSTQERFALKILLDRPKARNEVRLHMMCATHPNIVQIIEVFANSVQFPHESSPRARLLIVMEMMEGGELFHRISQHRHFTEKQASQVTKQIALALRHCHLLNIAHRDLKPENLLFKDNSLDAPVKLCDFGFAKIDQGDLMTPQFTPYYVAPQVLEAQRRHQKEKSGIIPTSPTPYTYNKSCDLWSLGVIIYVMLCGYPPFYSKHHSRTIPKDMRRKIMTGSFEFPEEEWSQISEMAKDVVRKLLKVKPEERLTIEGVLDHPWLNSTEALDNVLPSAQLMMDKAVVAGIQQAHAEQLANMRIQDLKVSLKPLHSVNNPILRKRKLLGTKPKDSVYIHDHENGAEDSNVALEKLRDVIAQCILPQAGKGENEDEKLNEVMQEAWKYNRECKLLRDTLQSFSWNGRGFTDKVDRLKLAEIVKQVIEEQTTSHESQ

[11] = target: Tyrosine-protein kinase BTK (Homo sapiens, UniProt Q06187); assay type: functional
Chain of Tyrosine-protein kinase BTK (Q06187 whole entry): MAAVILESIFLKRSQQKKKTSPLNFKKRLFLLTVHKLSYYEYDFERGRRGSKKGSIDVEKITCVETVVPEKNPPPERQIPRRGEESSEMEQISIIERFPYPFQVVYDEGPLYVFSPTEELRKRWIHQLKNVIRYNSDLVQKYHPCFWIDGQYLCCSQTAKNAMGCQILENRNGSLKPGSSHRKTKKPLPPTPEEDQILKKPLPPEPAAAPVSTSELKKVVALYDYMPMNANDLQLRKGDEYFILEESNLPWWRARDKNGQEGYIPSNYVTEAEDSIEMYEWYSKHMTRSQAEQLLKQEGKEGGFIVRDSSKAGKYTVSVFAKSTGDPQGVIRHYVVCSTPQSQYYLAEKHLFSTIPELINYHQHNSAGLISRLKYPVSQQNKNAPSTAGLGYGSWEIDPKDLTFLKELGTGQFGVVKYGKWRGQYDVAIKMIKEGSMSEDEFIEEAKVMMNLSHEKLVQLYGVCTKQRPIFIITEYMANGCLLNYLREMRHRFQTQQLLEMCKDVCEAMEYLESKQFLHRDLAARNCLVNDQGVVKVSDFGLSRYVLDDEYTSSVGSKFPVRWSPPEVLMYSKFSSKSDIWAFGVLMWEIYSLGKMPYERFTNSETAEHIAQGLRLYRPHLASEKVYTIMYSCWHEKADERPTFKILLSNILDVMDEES

[12] = target: Mast/stem cell growth factor receptor Kit (Homo sapiens, UniProt P10721); assay type: functional;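 also: KIT entry within a kinase panel assay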
Chain of Mast/stem cell growth factor receptor Kit (P10721 whole entry): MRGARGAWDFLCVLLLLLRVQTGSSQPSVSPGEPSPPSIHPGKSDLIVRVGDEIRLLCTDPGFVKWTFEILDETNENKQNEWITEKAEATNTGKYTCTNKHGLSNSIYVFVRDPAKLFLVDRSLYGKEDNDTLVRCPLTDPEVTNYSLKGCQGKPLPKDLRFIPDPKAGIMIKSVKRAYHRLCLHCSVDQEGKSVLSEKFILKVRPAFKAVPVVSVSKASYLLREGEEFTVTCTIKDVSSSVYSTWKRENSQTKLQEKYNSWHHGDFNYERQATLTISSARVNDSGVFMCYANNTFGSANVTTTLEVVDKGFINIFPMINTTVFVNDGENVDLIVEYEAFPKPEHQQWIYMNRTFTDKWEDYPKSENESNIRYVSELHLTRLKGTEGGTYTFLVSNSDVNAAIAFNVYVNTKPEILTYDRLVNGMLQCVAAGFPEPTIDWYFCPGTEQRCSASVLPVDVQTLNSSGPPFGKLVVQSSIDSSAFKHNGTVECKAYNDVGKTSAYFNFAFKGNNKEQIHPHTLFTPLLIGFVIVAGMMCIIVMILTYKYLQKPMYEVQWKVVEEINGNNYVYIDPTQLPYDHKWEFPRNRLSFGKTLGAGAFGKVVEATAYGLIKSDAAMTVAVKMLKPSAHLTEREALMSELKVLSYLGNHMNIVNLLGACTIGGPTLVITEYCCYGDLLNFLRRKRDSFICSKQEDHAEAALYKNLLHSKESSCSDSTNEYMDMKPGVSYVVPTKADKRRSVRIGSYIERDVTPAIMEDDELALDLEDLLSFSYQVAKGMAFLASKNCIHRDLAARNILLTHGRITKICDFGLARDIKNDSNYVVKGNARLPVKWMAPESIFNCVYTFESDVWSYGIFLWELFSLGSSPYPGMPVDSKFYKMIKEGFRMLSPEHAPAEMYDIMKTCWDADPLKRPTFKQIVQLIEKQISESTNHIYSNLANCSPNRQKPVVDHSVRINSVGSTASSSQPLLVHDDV

[13] = target: Dual specificity tyrosine-phosphorylation-regulated kinase 3 (Homo sapiens, UniProt O43781); assay type: functional;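 also: measured as one member of a broad kinase panel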
[14] = target: MAP kinase-interacting serine/threonine-protein kinase 2 (Homo sapiens, UniProt Q9HBH9); assay type: functional
[15] = target: Cyclin-dependent kinase 5 (Homo sapiens, UniProt Q00535); assay type: functional;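 also: CDK5 measured as one member of a kinase profiling panel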
[16] = target: Mitogen-activated protein kinase 1 (Homo sapiens, UniProt P28482); assay type: functional
Chain of Mitogen-activated protein kinase 1 (P28482 whole entry): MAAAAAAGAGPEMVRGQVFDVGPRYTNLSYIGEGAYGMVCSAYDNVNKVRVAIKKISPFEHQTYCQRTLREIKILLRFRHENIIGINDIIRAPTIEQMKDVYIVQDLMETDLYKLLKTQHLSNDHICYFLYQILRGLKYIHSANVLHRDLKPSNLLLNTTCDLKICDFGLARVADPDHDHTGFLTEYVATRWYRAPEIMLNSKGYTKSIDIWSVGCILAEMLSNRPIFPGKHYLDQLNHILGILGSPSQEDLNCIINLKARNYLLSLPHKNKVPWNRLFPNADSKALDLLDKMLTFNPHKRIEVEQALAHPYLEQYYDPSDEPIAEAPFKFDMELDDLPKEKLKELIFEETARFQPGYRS

[17] = target: Maternal embryonic leucine zipper kinase (Homo sapiens, UniProt Q14680); assay type: functional
Chain of Maternal embryonic leucine zipper kinase (Q14680 whole entry): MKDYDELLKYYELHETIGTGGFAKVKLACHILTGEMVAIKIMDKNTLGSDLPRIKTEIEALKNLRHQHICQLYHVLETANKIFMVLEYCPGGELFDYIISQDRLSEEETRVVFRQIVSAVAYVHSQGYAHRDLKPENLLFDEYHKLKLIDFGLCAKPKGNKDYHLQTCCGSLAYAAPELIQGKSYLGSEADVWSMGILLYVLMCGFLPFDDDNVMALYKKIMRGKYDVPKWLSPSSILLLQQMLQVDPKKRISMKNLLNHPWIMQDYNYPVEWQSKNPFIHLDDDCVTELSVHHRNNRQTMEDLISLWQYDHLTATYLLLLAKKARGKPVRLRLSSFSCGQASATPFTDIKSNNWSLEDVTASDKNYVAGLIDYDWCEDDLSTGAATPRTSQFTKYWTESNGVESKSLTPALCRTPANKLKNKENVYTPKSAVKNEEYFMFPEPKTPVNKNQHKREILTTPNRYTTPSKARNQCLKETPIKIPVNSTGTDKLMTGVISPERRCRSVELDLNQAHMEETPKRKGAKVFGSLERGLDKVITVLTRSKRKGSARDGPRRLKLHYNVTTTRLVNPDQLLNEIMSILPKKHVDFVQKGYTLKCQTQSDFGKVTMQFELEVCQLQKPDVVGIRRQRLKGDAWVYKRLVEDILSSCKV

Beta-galactosidase = Beta-galactosidase (Escherichia coli, UniProt Q8VNN2); assay type: functional
Chain of Beta-galactosidase (Q8VNN2 whole entry): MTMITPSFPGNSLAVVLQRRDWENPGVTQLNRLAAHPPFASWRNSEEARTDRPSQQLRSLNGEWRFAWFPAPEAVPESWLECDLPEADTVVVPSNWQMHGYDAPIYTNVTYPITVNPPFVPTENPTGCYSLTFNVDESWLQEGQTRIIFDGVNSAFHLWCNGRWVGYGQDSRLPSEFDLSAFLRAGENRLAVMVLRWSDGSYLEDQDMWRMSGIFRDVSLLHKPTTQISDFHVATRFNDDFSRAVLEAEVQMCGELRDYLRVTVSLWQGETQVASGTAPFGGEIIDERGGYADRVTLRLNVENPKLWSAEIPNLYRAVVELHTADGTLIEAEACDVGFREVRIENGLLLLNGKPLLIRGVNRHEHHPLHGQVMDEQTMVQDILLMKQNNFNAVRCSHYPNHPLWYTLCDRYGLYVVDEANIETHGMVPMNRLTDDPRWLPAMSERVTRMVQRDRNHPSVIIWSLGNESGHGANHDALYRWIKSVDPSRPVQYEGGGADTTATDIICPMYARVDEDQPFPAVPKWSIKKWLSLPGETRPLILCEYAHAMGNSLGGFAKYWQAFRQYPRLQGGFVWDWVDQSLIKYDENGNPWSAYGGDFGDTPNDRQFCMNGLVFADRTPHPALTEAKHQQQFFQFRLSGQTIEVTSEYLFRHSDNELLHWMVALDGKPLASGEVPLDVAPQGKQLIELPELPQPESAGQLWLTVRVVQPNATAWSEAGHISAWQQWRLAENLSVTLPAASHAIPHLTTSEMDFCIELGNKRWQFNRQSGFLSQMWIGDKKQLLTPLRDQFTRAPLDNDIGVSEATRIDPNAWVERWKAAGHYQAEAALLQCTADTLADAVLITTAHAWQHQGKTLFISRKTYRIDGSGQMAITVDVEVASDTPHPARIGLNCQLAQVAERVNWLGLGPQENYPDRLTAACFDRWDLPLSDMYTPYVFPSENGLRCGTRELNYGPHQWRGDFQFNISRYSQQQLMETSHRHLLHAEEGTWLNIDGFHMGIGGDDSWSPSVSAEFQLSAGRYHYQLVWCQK

[18] = cytotoxicity toward DRD oncogenic fibroblasts, dose response, cell-based, non-viral oncogenic, luminescence (AID 1934); assay type: functional; details: Homo sapiens

SMILES: CN(C)c1ncc(C2=C(Cl)C(=O)C(N3CCCC3)=C(Cl)C2=O)s1
- EC50 [1]: 13.7 µM (active)

SMILES: Cc1ccc(C(=O)c2c(C)oc3c2C(=O)C(=O)c2ccccc2-3)cc1
- IC50 [2]: > 50 µM (not active)

SMILES: Cc1cnc(NC(=O)c2sc3ccccc3c2Cl)s1
- IC50 [3]: 1.77 µM (active)
- AC50 [4]: 25.4 µM (active)
- EC50 [5]: > 67.5 µM (inactive)

- Ki [6]: > 1.58 µM (inactive)
- Ki [7]: 3.16 µM (active)
- Ki [8]: 0.794 µM (active)
- Ki [9]: > 7.94 µM (inactive)
- Ki [10]: > 1.58 µM (inactive)
- Ki [11]: > 1.26 µM (inactive)
- Ki [12]: > 1.26 µM (inactive)
- Ki [13]: > 6.31 µM (inactive)
- Ki [14]: 0.794 µM (active)
- Ki [15]: > 10 µM (inactive)
- Ki [16]: > 7.94 µM (inactive)
- Ki [17]: 0.631 µM (active)
SMILES: O=C1NC(=S)SC1=C1C(=O)Nc2ccc(Br)cc21

SMILES: Cc1ccc(Nc2cc(C)nn2-c2nc(C)cc(O)n2)cc1
- EC50 (Beta-galactosidase): > 31.5 µM (inactive)
- EC50 [18]: 22.4 µM (active)
